Columns and labels:
COX-1 = COX-1 protein in microsomes of inflamed paw of carrageenan-induced rats (western blotting); format: in vivo, SD rats; details: SIN or DEX pretreatment i.p.
Description: The model of carrageenan-induced paw edema was performed with SD rats (150-200 g). The carrageenan-induced paw edema was performed in SD rats (150-200 g) by subcutaneously injection λ-carrageenan as described in Liu J. et al., Pharmacological research 2016, 111 and Luo P. et al., J. Pharmacol. Exp. Ther. 2010. Briefly, rats were fasted for 12 h before experiment and intraperitoneal injection was performed with three different doses (25, 50 and 100 mg/kg) of SIN, or DEX (reference drug, 2 mg/kg) or 0.9% saline (Vehicle and Normal group rats), at 2 h prior to the induction of paw edema. […] Paw volumes (ml) of right hind foot of each rat were measured using a plethysmometer (type 7150; UGO Basile, Comerio, Italy) at 0 h (before carrageenan injection) and then again at 1, 2, 3 and 4 h after the injection of carrageenan or saline. The percentage of paw edema of the right hind paws of all groups were calculated at different time points by the following equation: […]
Whole-cell and nuclear proteins were obtained using RIPA lysis buffer (CST, Boston, Mass., USA) and Nuclear and Cytoplasmic Extraction Reagents kit from Thermo Scientific (Asheville, N.C., USA), respectively. […] The levels of protein expression were measured using Odyssey v3.0 software from Li-COR (Lincoln, Nebr., USA).

CEBPβ (COX-2 promoter) = test: ChIP assay: CEBPβ DNA binding to COX-2 promoter in LPS-stimulated rat peritoneal macrophages; format: cell-based; details: 640 μM SIN 1 h, 1 μg/ml LPS 30 min
Description: Rat peritoneal macrophages were pretreated with 640 μM SIN (1 h) and stimulated with 1 μg/ml LPS (30 min) before fixation at room temperature for 10 min with 1% formaldehyde. Fixation was terminated by adding glycine (to 0.125 M) with an additional incubation of 5 min, then the cells were washed twice with ice-cold PBS and harvested by scraping and centrifugation (1500 rpm for 10 min at 4° C.). Cell lysis was performed using ChIP kit from abcam (Cambridge, UK) according to the manufacturer's instructions. Briefly, cell pellets were resuspended in 1 ml Buffer B by pipetting up and down several times in a microcentrifuge tube and incubated at room temperature for 10 min. After centrifugation at 5000 rpm, the pellet was collected and resuspended in ice cold Buffer C and incubated on ice for 10 min, followed by centrifugation (5,000 rpm for 10 min at 4° C.). The pellet was mixed with 100 μl Buffer D containing protease inhibitors, incubated on ice for 10 min and sonicated for 30 cycles in a Bioruptor UCD-300 sonicator (power on high, 30 s on, 30 s off per cycle), yielding DNA fragments of 150-200 bps (the size of sonicated chromatin was checked through running 2% agarose gel). Beads were blocked overnight in PBS with 0.5% BSA and then added to the samples. […]

COC1=C[C@@H]2[C@@H]3Cc4ccc(OC)c(O)c4[C@]2(CCN3C)CC1=O [SIN, sinomenine]
COX-1 level in inflamed paw (COX-1): did not produce observable effects
DNA binding of CEBPβ to the COX-2 promoter (CEBPβ (COX-2 promoter)): inhibited
